Values of other authors, collected in patent US5627202A, “Inhibitors of farnesyl-protein transferase” (Merck & Co., Inc., priority 1996, dated 1997).

Tested on: farnesyl-protein transferase
Details: via HMG-CoA reductase inhibition

SMILES	Indirect inhibition of farnesyl-protein transferase in vivo
CC[C@H](C)C(=O)O[C@H]1C[C@@H](C)C=C2C=C[C@H](C)[C@H](CC[C@@H]3C[C@@H](O)CC(=O)O3)[C@H]21 [lovastatin]	Indirect inhibition of farnesyl-protein transferase in vivo
CC[C@H](C)C(=O)O[C@H]1CCC=C2C=C[C@H](C)[C@H](CC[C@@H]3C[C@@H](O)CC(=O)O3)[C@H]21 [compactin]	Indirect inhibition of farnesyl-protein transferase in vivo
